# Test results reported in patent US20240132484A1, “BROAD SPECTRUM ANTIVIRAL COMPOUNDS TARGETING THE SKI COMPLEX” (priority 2020, published 2024).
# “And” between values parts separate entries of the source, which are not always exact repeats. Equal entries are not always repeated. Where two headings read alike, the source gives them in different places.
# Assays:
# cells (nuclei count) = settings: for Toxicity Data: Average, Mean: n 9; for Relative cell count to DMSO controls, Average 1 μM / Relative cell count to DMSO controls, Average 5 μM / Relative cell count to DMSO controls, Average 10 μM / Relative cell count to DMSO controls, Average 25 μM / Relative cell count to DMSO controls, Average 50 μM: toxicity data, 100=DMSO control; for Relative cell count to DMSO controls, Average (for correlation analysis): average value over the 5 tested concentrations (1 to 50 uM)
# SARS2 = type: cell-based, SARS-CoV-2; settings: for Infection Data: Percentage Infection Relative to Appropriate DMSO Control: avg background subtraction, replicate wells; for Infection Data: Average, Mean: average of Exp 1-3 (SMW475, SMW477, SMW478), n 9; for Percentage Inhibition Average 1 μM / Screening data (Relative infection to DMSO controls) Average 1 μM: SARS2, 1 μM; for Screening data (Relative infection to DMSO controls) Average 1 μM / Screening data (Relative infection to DMSO controls) Average 5 μM / Screening data (Relative infection to DMSO controls) Average 10 μM / Screening data (Relative infection to DMSO controls) Average 25 μM / Screening data (Relative infection to DMSO controls) Average 50 μM / Average (relative infection to DMSO over the 5 tested concentrations): 100=DMSO control; for Percentage Inhibition Average 5 μM / Screening data (Relative infection to DMSO controls) Average 5 μM: SARS2, 5 μM; for Percentage Inhibition Average 10 μM / Screening data (Relative infection to DMSO controls) Average 10 μM: SARS2, 10 μM; for Percentage Inhibition Average 25 μM / Screening data (Relative infection to DMSO controls) Average 25 μM: SARS2, 25 μM; for Percentage Inhibition Average 50 μM / Screening data (Relative infection to DMSO controls) Average 50 μM: SARS2, 50 μM; for Average (relative infection to DMSO over the 5 tested concentrations): SARS2, average over 1 to 50 uM
compound,measurement,setting,value
Cc1csc(CN(CCN(C)C)Cc2ccco2)c1 [SILCS17],"Toxicity Data: Average, Mean","cells (nuclei count); 1 uM, average of Exp 1-3 (SMW475, SMW477, SMW478)",96.29%
same,"Relative cell count to DMSO controls, Average 1 μM",cells (nuclei count),96.29
same,"Toxicity Data: Average, Mean","cells (nuclei count); 5 uM, average of Exp 1-3 (SMW475, SMW477, SMW478)",89.17%
same,"Relative cell count to DMSO controls, Average 5 μM",cells (nuclei count),89.17
same,"Toxicity Data: Average, Mean","cells (nuclei count); 10 uM, average of Exp 1-3 (SMW475, SMW477, SMW478)",88.87%
same,"Relative cell count to DMSO controls, Average 10 μM",cells (nuclei count),88.87
same,"Toxicity Data: Average, Mean","cells (nuclei count); 25 uM, average of Exp 1-3 (SMW475, SMW477, SMW478)",75.47%
same,"Relative cell count to DMSO controls, Average 25 μM",cells (nuclei count),75.47
same,"Toxicity Data: Average, Mean","cells (nuclei count); 50 uM, average of Exp 1-3 (SMW475, SMW477, SMW478)",53.52%
same,"Relative cell count to DMSO controls, Average 50 μM",cells (nuclei count),53.52
same,"Relative cell count to DMSO controls, Average (for correlation analysis)",cells (nuclei count),80.66
same,Infection Data: Percentage Infection Relative to Appropriate DMSO Control,"SARS2; 1 uM, Exp 1 (SMW475)",78.55% and 85.49% and 89.26%
same,Infection Data: Percentage Infection Relative to Appropriate DMSO Control,"SARS2; 1 uM, Exp 2 (SMW477)",101.46% and 156.03% and 155.63%
same,Infection Data: Percentage Infection Relative to Appropriate DMSO Control,"SARS2; 1 uM, Exp 3 (SMW478)",90.81% and 93.25% and 105.34%
same,"Infection Data: Average, Mean",SARS2; 1 uM,106.20%
same,Infection Data: Percentage Infection Relative to Appropriate DMSO Control,"SARS2; 5 uM, Exp 1 (SMW475)",86.61% and 84.44% and 77.45%
same,Infection Data: Percentage Infection Relative to Appropriate DMSO Control,"SARS2; 5 uM, Exp 2 (SMW477)",142.87% and 172.05% and 157.06%
same,Infection Data: Percentage Infection Relative to Appropriate DMSO Control,"SARS2; 5 uM, Exp 3 (SMW478)",97.85% and 101.86% and 101.30%
same,"Infection Data: Average, Mean",SARS2; 5 uM,113.50%
same,Infection Data: Percentage Infection Relative to Appropriate DMSO Control,"SARS2; 10 uM, Exp 1 (SMW475)",75.56% and 86.80% and 108.19%
same,Infection Data: Percentage Infection Relative to Appropriate DMSO Control,"SARS2; 10 uM, Exp 2 (SMW477)",130.54% and 160.59% and 172.84%
same,Infection Data: Percentage Infection Relative to Appropriate DMSO Control,"SARS2; 10 uM, Exp 3 (SMW478)",90.38% and 97.98% and 103.28%
same,"Infection Data: Average, Mean",SARS2; 10 uM,114.02%
same,Infection Data: Percentage Infection Relative to Appropriate DMSO Control,"SARS2; 25 uM, Exp 1 (SMW475)",41.54% and 68.32% and 68.68%
same,Infection Data: Percentage Infection Relative to Appropriate DMSO Control,"SARS2; 25 uM, Exp 2 (SMW477)",38.35% and 67.19% and 82.12%
same,Infection Data: Percentage Infection Relative to Appropriate DMSO Control,"SARS2; 25 uM, Exp 3 (SMW478)",68.44% and 109.27% and 278.92%
same,"Infection Data: Average, Mean",SARS2; 25 uM,91.43%
same,Infection Data: Percentage Infection Relative to Appropriate DMSO Control,"SARS2; 50 uM, Exp 1 (SMW475)",15.74% and 49.90% and 30.92%
same,Infection Data: Percentage Infection Relative to Appropriate DMSO Control,"SARS2; 50 uM, Exp 2 (SMW477)",11.74% and 25.42% and 30.96%
same,Infection Data: Percentage Infection Relative to Appropriate DMSO Control,"SARS2; 50 uM, Exp 3 (SMW478)",20.44% and 62.60% and 81.13%
same,"Infection Data: Average, Mean",SARS2; 50 uM,36.54%
same,Percentage Inhibition Average 1 μM,SARS2,−6.20%
same,Screening data (Relative infection to DMSO controls) Average 1 μM,SARS2,106.20
same,Percentage Inhibition Average 5 μM,SARS2,−13.50%
same,Screening data (Relative infection to DMSO controls) Average 5 μM,SARS2,113.50
same,Percentage Inhibition Average 10 μM,SARS2,−14.02%
same,Screening data (Relative infection to DMSO controls) Average 10 μM,SARS2,114.02
same,Percentage Inhibition Average 25 μM,SARS2,8.57%
same,Screening data (Relative infection to DMSO controls) Average 25 μM,SARS2,91.43
same,Percentage Inhibition Average 50 μM,SARS2,63.46%
same,Screening data (Relative infection to DMSO controls) Average 50 μM,SARS2,36.54
same,Average (relative infection to DMSO over the 5 tested concentrations),SARS2,92.34
CN(C)CCN(Cc1ccsc1)Cc1ccco1 [SILCS12],"Toxicity Data: Average, Mean","cells (nuclei count); 1 uM, average of Exp 1-3 (SMW454, SMW466, SMW480)",103.58%
same,"Relative cell count to DMSO controls, Average 1 μM",cells (nuclei count),103.58
same,"Toxicity Data: Average, Mean","cells (nuclei count); 5 uM, average of Exp 1-3 (SMW454, SMW466, SMW480)",102.70%
same,"Relative cell count to DMSO controls, Average 5 μM",cells (nuclei count),102.7
same,"Toxicity Data: Average, Mean","cells (nuclei count); 10 uM, average of Exp 1-3 (SMW454, SMW466, SMW480)",96.10%
same,"Relative cell count to DMSO controls, Average 10 μM",cells (nuclei count),96.1
same,"Toxicity Data: Average, Mean","cells (nuclei count); 25 uM, average of Exp 1-3 (SMW454, SMW466, SMW480)",95.34%
same,"Relative cell count to DMSO controls, Average 25 μM",cells (nuclei count),95.34
same,"Toxicity Data: Average, Mean","cells (nuclei count); 50 uM, average of Exp 1-3 (SMW454, SMW466, SMW480)",66.97%
same,"Relative cell count to DMSO controls, Average 50 μM",cells (nuclei count),66.97
same,"Relative cell count to DMSO controls, Average (for correlation analysis)",cells (nuclei count),92.94
same,"Percentage Infection Relative to DMSO Control, Average, Mean",SARS2,76.66% and 135.12% and 110.30% and 109.01% and 120.43%
same,Percentage Inhibition Average 1 μM,SARS2,−20.43%
same,Screening data (Relative infection to DMSO controls) Average 1 μM,SARS2,120.43
same,Percentage Inhibition Average 5 μM,SARS2,−9.01%
same,Screening data (Relative infection to DMSO controls) Average 5 μM,SARS2,109.01
same,Percentage Inhibition Average 10 μM,SARS2,−10.30%
same,Screening data (Relative infection to DMSO controls) Average 10 μM,SARS2,110.30
same,Percentage Inhibition Average 25 μM,SARS2,−35.12%
same,Screening data (Relative infection to DMSO controls) Average 25 μM,SARS2,135.12
same,Percentage Inhibition Average 50 μM,SARS2,23.34%
same,Screening data (Relative infection to DMSO controls) Average 50 μM,SARS2,76.66
same,Average (relative infection to DMSO over the 5 tested concentrations),SARS2,110.30
COc1ccc(C2NC(=O)NC(C)=C2C(=O)NCC2CCCCC2)cc1OC (stereo not drawn) [SILCS63],"Relative cell count to DMSO controls, Average 1 μM",cells (nuclei count),106.9
same,"Relative cell count to DMSO controls, Average 5 μM",cells (nuclei count),114.55
same,"Relative cell count to DMSO controls, Average 10 μM",cells (nuclei count),101.91
same,"Relative cell count to DMSO controls, Average 25 μM",cells (nuclei count),91.46
same,"Relative cell count to DMSO controls, Average 50 μM",cells (nuclei count),78.57
same,"Relative cell count to DMSO controls, Average (for correlation analysis)",cells (nuclei count),98.68
same,Percentage Inhibition Average 1 μM,SARS2,19.08%
same,Screening data (Relative infection to DMSO controls) Average 1 μM,SARS2,80.92
same,Percentage Inhibition Average 5 μM,SARS2,53.97%
same,Screening data (Relative infection to DMSO controls) Average 5 μM,SARS2,46.03
same,Percentage Inhibition Average 10 μM,SARS2,7.81%
same,Screening data (Relative infection to DMSO controls) Average 10 μM,SARS2,92.19
same,Percentage Inhibition Average 25 μM,SARS2,−18.04%
same,Screening data (Relative infection to DMSO controls) Average 25 μM,SARS2,118.04
same,Percentage Inhibition Average 50 μM,SARS2,−21.48%
same,Screening data (Relative infection to DMSO controls) Average 50 μM,SARS2,121.48
same,Average (relative infection to DMSO over the 5 tested concentrations),SARS2,91.73
COc1ccc(C2NC(=O)NC(C)=C2C(=O)NC2CCCCCC2)cc1OC (stereo not drawn) [SILCS59],"Relative cell count to DMSO controls, Average 1 μM",cells (nuclei count),115.37
same,"Relative cell count to DMSO controls, Average 5 μM",cells (nuclei count),119.78
same,"Relative cell count to DMSO controls, Average 10 μM",cells (nuclei count),116.3
same,"Relative cell count to DMSO controls, Average 25 μM",cells (nuclei count),100.03
same,"Relative cell count to DMSO controls, Average 50 μM",cells (nuclei count),86.44
same,"Relative cell count to DMSO controls, Average (for correlation analysis)",cells (nuclei count),107.58
same,Percentage Inhibition Average 1 μM,SARS2,29.42%
same,Screening data (Relative infection to DMSO controls) Average 1 μM,SARS2,70.58
same,Percentage Inhibition Average 5 μM,SARS2,33.20%
same,Screening data (Relative infection to DMSO controls) Average 5 μM,SARS2,66.80
same,Percentage Inhibition Average 10 μM,SARS2,16.88%
same,Screening data (Relative infection to DMSO controls) Average 10 μM,SARS2,83.12
same,Percentage Inhibition Average 25 μM,SARS2,−8.59%
same,Screening data (Relative infection to DMSO controls) Average 25 μM,SARS2,108.59
same,Percentage Inhibition Average 50 μM,SARS2,−28.37%
same,Screening data (Relative infection to DMSO controls) Average 50 μM,SARS2,128.37
same,Average (relative infection to DMSO over the 5 tested concentrations),SARS2,91.49
